The record followed here is PubChem BioAssay (NCI).

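Interpolation was linear, between the two tested concentrations surrounding the appropriate level; five concentrations were tested over 48 hours in 96-well plates. Definition used: TGI = concentration required for complete inhibition of growth.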

Some test systems named below: MCF7 breast; OVCAR-5 ovarian; K-562 leukemia; PC-3 prostate; HOP-92 NSCLC; HOP-62 NSCLC; NCI-H23 lung; M14 melanoma; IGROV1 ovarian; RPMI-8226 leukemia; U251 CNS; KM12 colon; SK-OV-3 ovarian; A498 renal; NCI/ADR-RES ovarian; ACHN renal.
Assay in all cases: growth of human tumour cells (NCI), 48 h

For the compound `Cc1ccc(C(=O)c2[nH]c(NCc3ccccc3)c(C(=S)Nc3ccccc3)c2N)cc1`, the TGI with MCF7 breast turned out to be 13.2 µM; with OVCAR-5 ovarian, 27 µM; in the assay on K-562 leukemia it was 5.11 µM; in the assay with PC-3 prostate, 26.1 µM; in the assay on HOP-92 NSCLC, 18.9 µM; in the assay on HOP-62 NSCLC, 29.2 µM. Also, the TGI turned out to be 27.1 µM with NCI-H23 lung; 3.97 µM in the assay with M14 melanoma; 19.9 µM with IGROV1 ovarian; 5 µM in the assay on RPMI-8226 leukemia; 15.6 µM in the assay with U251 CNS; 6.34 µM in the assay on KM12 colon. Also, the TGI amounted to 8.04 µM in the assay with SK-OV-3 ovarian, 31.6 µM with A498 renal, 8.51 µM in the assay with NCI/ADR-RES ovarian and 23.5 µM in the assay with ACHN renal.
With `N#Cc1ccc(N=NN2CCCC2)cc1`, the TGI in the assay with MCF7 breast, with OVCAR-5 ovarian, in the assay on K-562 leukemia, in the assay on PC-3 prostate, in the assay with HOP-92 NSCLC and in the assay on HOP-62 NSCLC was above 100 µM throughout. Moreover, the TGI in the assay with NCI-H23 lung, in the assay with M14 melanoma, in the assay on IGROV1 ovarian, in the assay on RPMI-8226 leukemia, in the assay with U251 CNS and in the assay on KM12 colon was above 100 µM in each case. Besides, the TGI in the assay on SK-OV-3 ovarian, in the assay on A498 renal, in the assay with NCI/ADR-RES ovarian and in the assay on ACHN renal was above 100 µM throughout.
Turning to `ON[C@@H]1C=C[C@H](n2cnc3c(NC4CC4)ncnc32)C1`, the TGI in the assay on MCF7 breast, in the assay with OVCAR-5 ovarian, in the assay with K-562 leukemia, in the assay on PC-3 prostate, in the assay on HOP-92 NSCLC and with HOP-62 NSCLC was above 100 µM each time. In addition, the TGI in the assay with NCI-H23 lung, with M14 melanoma, with IGROV1 ovarian, in the assay on RPMI-8226 leukemia, in the assay with U251 CNS and in the assay on KM12 colon was above 100 µM each time. Moreover, the TGI in the assay with SK-OV-3 ovarian, with A498 renal, in the assay on NCI/ADR-RES ovarian and in the assay with ACHN renal was above 100 µM each time.
On to `O=C1C=CC2(C=C1)O[C@H](CCc1ccccc1)[C@@H](CCc1ccccc1)O2`, for which the TGI in the assay with MCF7 breast was above 100 µM; with OVCAR-5 ovarian, above 100 µM; in the assay with K-562 leukemia it was above 100 µM; with PC-3 prostate, above 100 µM; with HOP-92 NSCLC, 94.3 µM; in the assay with HOP-62 NSCLC, above 100 µM. Further, the TGI was above 100 µM in the assay with NCI-H23 lung; above 100 µM with M14 melanoma; above 100 µM with IGROV1 ovarian; above 100 µM in the assay on RPMI-8226 leukemia; 38.2 µM in the assay on U251 CNS; above 100 µM in the assay on KM12 colon. For the same compound, the TGI in the assay on SK-OV-3 ovarian, in the assay on A498 renal, with NCI/ADR-RES ovarian and in the assay on ACHN renal was above 100 µM throughout.
As to `COC(=O)/C=C1\C(=O)Nc2ccc(Br)cc21`, the TGI is 3.01 µM in the assay on MCF7 breast; 3.17 µM in the assay on OVCAR-5 ovarian; above 28 µM in the assay on K-562 leukemia; 2.82 µM in the assay with PC-3 prostate; 4.92 µM in the assay with HOP-92 NSCLC; 4.61 µM in the assay with HOP-62 NSCLC. The TGI in the assay on NCI-H23 lung amounted to 3.52 µM; in the assay with M14 melanoma it was 6.03 µM; in the assay on IGROV1 ovarian, 3.63 µM; in the assay on RPMI-8226 leukemia it was 4.48 µM; in the assay on U251 CNS it was 4.73 µM; in the assay with KM12 colon it was 4.8 µM. Moreover, the TGI worked out at 10.1 µM with SK-OV-3 ovarian, 11.6 µM in the assay on A498 renal, 4.49 µM in the assay on NCI/ADR-RES ovarian and 3.36 µM in the assay on ACHN renal.
Regarding `CC(=O)O[C@H]1[C@@H](N2CCCCC2)C[C@H]2[C@@H]3CC=C4C[C@@H](N5CCCC5)CC[C@]4(C)[C@H]3CC[C@@]21C`, the TGI with MCF7 breast was above 100 µM; with OVCAR-5 ovarian it was above 100 µM; in the assay on K-562 leukemia, 22.5 µM; with PC-3 prostate it was above 100 µM; with HOP-92 NSCLC, above 100 µM; in the assay with HOP-62 NSCLC it was above 100 µM. Further, the TGI with NCI-H23 lung is above 100 µM; with M14 melanoma it was 36.4 µM; in the assay with IGROV1 ovarian it was above 100 µM; with RPMI-8226 leukemia, 92.9 µM; in the assay on U251 CNS, above 100 µM; in the assay with KM12 colon, above 100 µM. The TGI in the assay on SK-OV-3 ovarian, in the assay on A498 renal, in the assay with NCI/ADR-RES ovarian and in the assay on ACHN renal was above 100 µM throughout.
For `Cc1cc(NS(=O)(=O)c2ccc(NC(=O)c3ccc4nc5ccccc5c(Nc5ccc(S(N)(=O)=O)cc5)c4c3)cc2)no1`, the TGI with MCF7 breast was 37.1 µM; in the assay on OVCAR-5 ovarian it was 65.8 µM; in the assay with K-562 leukemia, 44.6 µM; in the assay on PC-3 prostate, above 100 µM; with HOP-92 NSCLC it was 78.3 µM; in the assay with HOP-62 NSCLC it was above 100 µM. In addition, the TGI is 95.2 µM with NCI-H23 lung; above 100 µM in the assay with M14 melanoma; above 100 µM with IGROV1 ovarian; 68 µM in the assay with RPMI-8226 leukemia; 64.7 µM with U251 CNS; 59.1 µM in the assay on KM12 colon. In addition, the TGI is above 100 µM with SK-OV-3 ovarian, above 100 µM with A498 renal, above 100 µM in the assay with NCI/ADR-RES ovarian and 45.6 µM in the assay with ACHN renal.
Turning to `COc1ccc(-c2c(C#N)c(N)nc(Sc3ccccc3N)c2C#N)cc1`, the TGI in the assay on MCF7 breast was above 65.7 µM; in the assay on OVCAR-5 ovarian it was above 100 µM; in the assay on K-562 leukemia, above 100 µM; with PC-3 prostate, above 55.6 µM; in the assay with HOP-92 NSCLC, 27.2 µM; with HOP-62 NSCLC, 32.6 µM. The TGI with NCI-H23 lung was above 100 µM; in the assay on M14 melanoma, above 100 µM; in the assay on IGROV1 ovarian it was above 56.8 µM; in the assay on RPMI-8226 leukemia, above 100 µM; in the assay on U251 CNS, 61 µM; in the assay on KM12 colon it was above 100 µM. Besides, the TGI came to 32.6 µM in the assay with SK-OV-3 ovarian, 19.6 µM in the assay with A498 renal, 98.4 µM with NCI/ADR-RES ovarian and 51.4 µM in the assay on ACHN renal.
